# Measurements published in patent publication US20220088002A1, “METHOD AGAINST CORONAVIRUS INFECTION WITH QUINOLINE COMPOUND” (CHANG GUNG UNIVERSITY, priority 2020, published 2022).
# What was measured:
# HcoV-229E = experiment: Effect against HCoV-229E in Vero E6 cells (MTT cell viability); type: cell-based, human coronavirus 229E
# Experimental: Vero E6 cells were divided into 6 groups, including one normal control group, one pathological control group, and four experimental groups (i.e., experimental groups 1 to 4). Each group of the Vero E6 cells was incubated in a respective well of a 96-well culture plate containing 100 μL of E2 medium at 2×10^4 cells/well, followed by cultivation in an incubator (37° C., 5% CO2) for 24 hours. Afterwards, the culture medium in each well was removed, and the cells of the experimental groups 1 to 4 were pretreated with 6-bromo-2-[1-(2,5-dimethylphenyl)-5-methyl-1H-pyrazol-4-yl]-quinoline-4-carboxylic acid (i.e., HP520-3) (Cat. No. Molport-020-176-277, Molport Inc.) respectively at concentrations of 39 nM, 78 nM, 156 nM, and 312 nM, followed by adding 150 μL of the HcoV-229E solution prepared in section 2 of General Experimental Materials. […]
# Each group was cultivated in an incubator (37° C., 5% CO2) for 96 hours. […] After cultivation in an incubator (37° C., 5% CO2) for 2 hours, the respective resultant cell culture was added with 150 μL of dimethyl sulfoxide (DMSO), followed by subjecting the mixture thus obtained to determination of absorbance at a wavelength of 590 nm (OD590) by an ELISA reader.
# The cell viability rate (%) was calculated using the following Equation (I): […]
# SARS-CoV-2 [1] = experiment: Viral plaque reduction assay; type: cell-based; conditions: SARS-CoV-2-infected Vero E6 cells (m.o.i. 0.01), 1 μM and 10 μM, 72 hours; versus pathological control group
# SARS-CoV-2 [2] = type: cell-based; conditions: Vero E6 cells pretreated at 0.3125 μM, 1.25 μM, and 5 μM, m.o.i. 0.01; normalized against GAPDH; versus pathological control group
smiles,measurement,setting,value
"Cc1ccc(C)c(-n2ncc(-c3cc(C(=O)O)c4cc(Br)ccc4n3)c2C)c1 [HP520-3, 6-bromo-2-[1-(2,5-dimethylphenyl)-5-methyl-1H-pyrazol-4-yl]-quinoline-4-carboxylic acid]",cell viability rate,"HcoV-229E; HcoV-229E-infected Vero E6 cells pretreated at 39 nM, 78 nM, 156 nM, and 312 nM, versus pathological control group",significantly higher than that determined in the pathological control group
same,EC50,"HcoV-229E; Human coronavirus 229E, Vero C1008, HcoV-229E-infected Vero E6 cells, 96 hours, MTT, n=3, mean±SD",141 ± 15.4 nM
same,number of viral plaques,SARS-CoV-2 [1],lower than that determined in the pathological control group
same,relative RNA expression level of E gene of SARS-CoV-2,SARS-CoV-2 [2],significantly lower than that of the pathological control group
